Data published in patent US20230295234A1, “ANTIMICROBIAL PEPTIDOMIMETICS” (SPEXIS AG, priority 2020, published 2023).
Like-named read-outs stand apart in the source and are kept apart here. Bridge positions count the residues as written; N and C are the ends. Square brackets hold non-standard residues; d marks the D form. Peptide text beside a SMILES is read from it. Gly(N-2-aminoethyl) = NCCNCC(=O)O; Hyp = O=C(O)[C@@H]1C[C@@H](O)CN1; Gly(N(CH2)3NH2) = NCCCNCC(=O)O; Pen = CC(C)(S)[C@H](N)C(=O)O; dDab = NCC[C@@H](N)C(=O)O; Dab = NCC[C@H](N)C(=O)O

Columns and labels:
[1] = tested on: human red blood cells (hRBC); experiment: Hemolysis of human red blood cells; assay type: cell-based
Outline: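 PBS-washed human red blood cells (20% v/v) were incubated with peptide at 200 μg/mL for 1 h at 37 °C with shaking. Supernatant OD was read at 540 nm after 8-fold dilution. Hemolysis is expressed as percent of the water control.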

[2] = tested on: Escherichia coli ATCC 25922
Outline: (§1)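 Activity is measured against peptides serially diluted two-fold in water with 0.002% final Polysorbate 80. The cells are in cation-adjusted MHII broth at roughly 5×10^5 CFU/mL, prepared from a 0.5 McFarland suspension in 0.85% NaCl.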

[3] = tested on: Klebsiella pneumoniae SSI3010
Outline: as §1

[4] = tested on: Escherichia coli MCR-1 Af 45
Outline: as §1

[5] = Mueller-Hinton broth II, 18-20 hours at 35° C.

Row | Escherichia coli ATCC 25922 MIC ([2]; ATCC 25922) | Klebsiella pneumoniae SSI3010 MIC ([3]; SSI3010) | Escherichia coli MCR-1 Af 45 MIC ([4]; MCR-1 Af 45) | Structure (SMILES) | Hemolysis at 0.2 g/L ([1]; 20% hRBC, 1 h at 37° C.) | Escherichia coli ATCC 25922 MIC [2, 5] | Klebsiella pneumoniae SSI3010 MIC [3, 5] | Escherichia coli MCR-1 Af 45 MIC [4, 5] | Hemolysis at 0.2 g/L ([1]; red cells of human, 1 h)
1 | – | – | – | CCCC[C@H](NC(=O)[C@H](CCCNC(=N)N)NC(=O)[C@H](CCN)NC(=O)[C@@H]1CSSC(C)(C)[C@H](NC(=O)[C@H](Cc2ccc(O)cc2)NC(=O)[C@@H](NC(=O)[C@@H](NC(=O)[C@@H]2C[C@@H](N)CN2C(=O)[C@@H](N)C(C)C)[C@@H](C)CC)[C@@H](C)CC)C(=O)N[C@@H](CC(N)=O)C(=O)N[C@@H](CCCNC(=N)N)C(=O)N[C@@H](CCCNC(=N)N)C(=O)N[C@@H]([C@@H](C)O)C(=O)N[C@H](CCN)C(=O)N[C@@H](CCCCN)C(=O)N1)C(=O)O [Example 135] (HELM PEPTIDE1{V.[N[C@@H]1C[C@@H](C(=O)[*:2])N([*:1])C1].I.I.Y.[Pen].N.R.R.T.[NCC[C@@H](N[*:1])C(=O)[*:2]].K.C.[Dab].R.[Nle]}$PEPTIDE1,PEPTIDE1,6:R3-13:R3$$$V2.0) | 0% | 0.0625 µg/mL | 0.125 µg/mL | 0.0625 µg/mL | –
2 | 0.125 µg/mL | 0.25 µg/mL | 0.0625 µg/mL | CC[C@H](C)[C@H](NC(=O)CN(CCN)C(=O)[C@@H](NC(=O)[C@@H]1C[C@@H](O)CN1C(=O)CNCCCN)C(C)C)C(=O)N[C@H](C(=O)N[C@@H](Cc1ccc(O)cc1)C(=O)N[C@@H]1C(=O)N[C@@H](CC(N)=O)C(=O)N[C@@H](CCCNC(=N)N)C(=O)N[C@@H](CCN)C(=O)N[C@@H]([C@@H](C)O)C(=O)N[C@H](CCN)C(=O)N[C@@H](CCCCN)C(=O)N[C@H](C(=O)N[C@@H](CCN)C(=O)N[C@@H](CCCNC(=N)N)C(=O)N[C@@H](Cc2ccc(O)cc2)C(=O)O)CSSC1(C)C)[C@@H](C)O [Example 48, Norn-Hyp-Val-Ndab-Ile-Thr-Tyr-Pen-Asn-Arg-Dab-Thr-^DDab-Lys-Cys-Dab-Arg-Tyr] (H-[Gly(N(CH2)3NH2)][Hyp]V[Gly(N-2-aminoethyl)]ITY[Pen]NR[Dab]T[dDab]KC[Dab]RY-OH; disulfide 8-15; N-terminus and C-terminus assumed) | – | – | – | – | 0%
3 | – | – | – | CC[C@H](C)[C@H](NC(=O)[C@@H](NC(=O)[C@@H]1C[C@@H](O)CN1C(=O)[C@@H](N)C(C)C)[C@@H](C)CC)C(=O)N[C@@H](Cc1ccc(O)cc1)C(=O)N[C@@H]1C(=O)N[C@@H](CC(N)=O)C(=O)N[C@@H](CCCNC(=N)N)C(=O)N[C@@H](CCN)C(=O)N[C@@H]([C@@H](C)O)C(=O)N[C@H](CCN)C(=O)N[C@@H](CCCCN)C(=O)N[C@H](C(=O)N[C@@H](CCN)C(=O)N[C@@H](CCCNC(=N)N)C(=O)N[C@@H](Cc2ccc(O)cc2)C(=O)O)CSSC1(C)C [Example 147] (HELM PEPTIDE1{V.[Hyp].I.I.Y.[Pen].N.R.[Dab].T.[NCC[C@@H](N[*:1])C(=O)[*:2]].K.C.[Dab].R.Y}$PEPTIDE1,PEPTIDE1,6:R3-13:R3$$$V2.0) | 0% | 0.125 µg/mL | 0.25 µg/mL | 0.0625 µg/mL | –
4 | 0.0625 µg/mL | 0.125 µg/mL | ≤0.03125 µg/mL | CC[C@H](C)[C@H](NC(=O)[C@@H](NC(=O)[C@@H]1CCCN1C(=O)[C@@H](NC(=O)[C@@H]1CCCN1C(=O)[C@H](CCCCN)NC(=O)[C@@H](N)CCCCN)C(C)C)[C@@H](C)CC)C(=O)N[C@@H](Cc1ccc(O)cc1)C(=O)N[C@H]1CSSC[C@@H](C(=O)N[C@@H](CCN)C(=O)N[C@@H](CCCNC(=N)N)C(=O)N[C@@H](CC2CC2)C(=O)O)NC(=O)[C@H](CCCCN)NC(=O)[C@@H](CCN)NC(=O)[C@H]([C@@H](C)O)NC(=O)[C@H](CCN)NC(=O)[C@H](CCCNC(=N)N)NC(=O)[C@H](CC(N)=O)NC1=O [Example 79] (HELM PEPTIDE1{K.K.P.V.P.I.I.Y.C.N.R.[Dab].T.[NCC[C@@H](N[*:1])C(=O)[*:2]].K.C.[Dab].R.[O=C(O)[C@H](CC1CC1)N[*:1]]}$PEPTIDE1,PEPTIDE1,9:R3-16:R3$$$V2.0) | – | – | – | – | 0%
5 | 0.25 µg/mL | 0.125 µg/mL | 0.125 µg/mL | CC[C@H](C)[C@H](NC(=O)CN(CCN)C(=O)[C@@H](NC(=O)[C@@H]1CCCN1)C(C)C)C(=O)N[C@H](C(=O)N[C@@H](Cc1ccc(O)cc1)C(=O)N[C@@H]1C(=O)N[C@@H](CC(N)=O)C(=O)N[C@@H](CCCNC(=N)N)C(=O)N[C@@H](CCN)C(=O)N[C@@H]([C@@H](C)O)C(=O)N[C@H](CCN)C(=O)N[C@@H](CCCCN)C(=O)N[C@H](C(=O)N[C@@H](CCN)C(=O)N[C@@H](CCCNC(=N)N)C(=O)N[C@@H](Cc2ccc(O)cc2)C(=O)O)CSSC1(C)C)[C@@H](C)CC [Example 28, Pro-Val-Ndab-Ile-Ile-Tyr-Pen-Asn-Arg-Dab-Thr-^DDab-Lys-Cys-Dab-Arg-Tyr] (HELM PEPTIDE1{P.V.[NCCN(CC(=O)[*:2])[*:1]].I.I.Y.[Pen].N.R.[Dab].T.[NCC[C@@H](N[*:1])C(=O)[*:2]].K.C.[Dab].R.Y}$PEPTIDE1,PEPTIDE1,7:R3-14:R3$$$V2.0) | – | – | – | – | 0%
6 | ≤0.03125 µg/mL | 0.25 µg/mL | ≤0.03125 µg/mL | CC[C@H](C)[C@H](NC(=O)[C@@H]1CCCN1C(=O)[C@@H](NC(=O)[C@@H]1CCCN1C(=O)[C@H](CCCNC(=N)N)NC(=O)[C@@H](N)CCCCN)C(C)C)C(=O)N[C@H](C(=O)N[C@@H](Cc1ccc(O)cc1)C(=O)N[C@@H]1C(=O)N[C@@H](CC(N)=O)C(=O)N[C@@H](CCCNC(=N)N)C(=O)N[C@@H](CCN)C(=O)N[C@@H]([C@@H](C)O)C(=O)N[C@H](CCN)C(=O)N[C@@H](CCCCN)C(=O)N[C@H](C(=O)N[C@@H](CCN)C(=O)N[C@@H](CCCNC(=N)N)C(=O)N[C@@H](Cc2ccc(O)cc2)C(=O)O)CSSC1(C)C)[C@@H](C)O [Example 87] (HELM PEPTIDE1{K.R.P.V.P.I.T.Y.[Pen].N.R.[Dab].T.[NCC[C@@H](N[*:1])C(=O)[*:2]].K.C.[Dab].R.Y}$PEPTIDE1,PEPTIDE1,9:R3-16:R3$$$V2.0) | – | – | – | – | 0%

Row | Structure (SMILES) | Escherichia coli ATCC 25922 MIC ([2]; ATCC 25922) | Klebsiella pneumoniae SSI3010 MIC ([3]; SSI3010) | Escherichia coli MCR-1 Af 45 MIC ([4]; MCR-1 Af 45) | Hemolysis at 0.2 g/L ([1]; 20% hRBC, 1 h at 37° C.) | Escherichia coli ATCC 25922 MIC [2, 5] | Klebsiella pneumoniae SSI3010 MIC [3, 5] | Escherichia coli MCR-1 Af 45 MIC [4, 5] | Hemolysis at 0.2 g/L ([1]; red cells of human, 1 h)
7 | CC[C@H](C)[C@H](NC(=O)[C@@H]1C[C@@H](O)CN1C(=O)[C@@H](N)C(C)C)C(=O)N[C@H](C(=O)N[C@@H](Cc1ccc(O)cc1)C(=O)N[C@@H]1C(=O)N[C@@H](CC(N)=O)C(=O)N[C@@H](CCCNC(=N)N)C(=O)N[C@@H](CCN)C(=O)N[C@@H]([C@@H](C)O)C(=O)N[C@H](CCN)C(=O)N[C@@H](Cc2ccc(O)cc2)C(=O)N[C@H](C(=O)N[C@@H](CCN)C(=O)N[C@@H](CCCNC(=N)N)C(=O)N[C@@H](Cc2ccc(O)cc2)C(=O)O)CSSC1(C)C)[C@@H](C)O [Example 171] (HELM PEPTIDE1{V.[Hyp].I.T.Y.[Pen].N.R.[Dab].T.[NCC[C@@H](N[*:1])C(=O)[*:2]].Y.C.[Dab].R.Y}$PEPTIDE1,PEPTIDE1,6:R3-13:R3$$$V2.0) | 0.5 µg/mL | 0.25 µg/mL | – | – | – | – | 0.5 µg/mL | 0%
